According to patent US20170253601A1, “Substituted Pyrrolidine Compounds” (EPIZYME, INC., priority 2014, published 2017):

Biological target: T1, human SMYD3 (Homo sapiens, UniProt Q9H7B4)
T1 construct: Expressed full-length human His-tagged SMYD3 protein was purified from cell paste; His6 (cleaved yes); TEV and SUMO cleavage sites (cleaved yes); made in house; host or cells: E. coli BL21 codonplus RIL
T1 sequence (Q9H7B4 1-428): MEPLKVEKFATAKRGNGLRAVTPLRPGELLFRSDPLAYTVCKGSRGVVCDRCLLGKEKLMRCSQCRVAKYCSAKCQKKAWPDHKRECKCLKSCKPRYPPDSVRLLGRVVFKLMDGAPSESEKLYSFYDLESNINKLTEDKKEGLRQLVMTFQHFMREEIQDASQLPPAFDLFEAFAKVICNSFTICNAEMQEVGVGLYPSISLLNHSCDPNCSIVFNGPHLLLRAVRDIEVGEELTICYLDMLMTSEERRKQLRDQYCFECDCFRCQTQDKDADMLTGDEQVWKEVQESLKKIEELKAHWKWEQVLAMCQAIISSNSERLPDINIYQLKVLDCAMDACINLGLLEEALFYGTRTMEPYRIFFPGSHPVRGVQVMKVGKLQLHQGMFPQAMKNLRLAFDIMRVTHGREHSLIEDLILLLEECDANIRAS
Assay: SMYD3 Biochemical Assay (3H-SAM, MEKK2 protein substrate, SPA)
Conditions: Table 1; average of n = 1 to n = 50; read-out: SMYD3 Biochem IC50
Description: S-adenosylmethionine (SAM), S-adenosylhomocysteine (SAH), Tris, Tween20, dimethylsulfoxide (DMSO), bovine skin gelatin (BSG), and Tris(2-carboxyethyl)phosphine hydrochloride solution (TCEP) were purchased from Sigma-Aldrich at the highest level of purity possible. ^3H-SAM was purchase from American Radiolabeled Chemicals with a specific activity of 80 Ci/mmol. 384-well opaque white OptiPlates and SPA beads (Perkin Elmer, catalog # RPNQ0013) were purchased from PerkinElmer.
N-terminally GST-tagged MEKK2 (MAP3K2) protein corresponding to reference sequence AAF63496.3 was purchased from Life Technologies (catalog # PV4010). This protein was expressed in High Five insect cells and purified to >85% purity. Protein identity was confirmed by MS/MS analysis after proteolytic digestion. The protein sequence used was:
Full-length human SMYD3 isoform 1 (BAB86333) was inserted into a modified pET21b plasmid containing a His6 tag and TEV and SUMO cleavage sites. Because two common variants of SMYD3 exist in the population, site directed mutagenesis was subsequently performed to change amino acid 13 from an asparagine to a lysine, resulting in plasmid pEPZ533. A lysine at position 13 conforms to the more commonly occurring sequence (NP_001161212).
E. coli (BL21 codonplus RIL strain, Stratagene) were transformed with plasmid pEPZ553 by mixing competent cells and plasmid DNA and incubating on ice for 30 minutes followed by heat shock at 42° C. for 1 minute and cooling on ice for 2 minutes. Transformed cells were grown and selected on LB agar with 100 μg/mL ampicillin and 17 μg/mL chloramphenicol at 37° C. overnight. A single clone was used to inoculate 200 mL of LB medium with 100 μg/mL ampicillin and 17 μg/mL chloramphenicol and incubated at 37° C. on an orbital shaker at 180 rpm. Once in log growth, the culture was diluted 1:100 into 2 L of LB medium and grown until OD600 was about 0.3 after which the culture was incubated at 15° C. and 160 rpm. Once OD600 reached about 0.4, IPTG was added to a final concentration of 0.1 mM and the cells were grown overnight at 15° C. and 160 rpm. Cells were harvested by centrifugation at 8000 rpm, for 4 minutes at 4° C. and stored at −80° C. for purification.
Expressed full-length human His-tagged SMYD3 protein was purified from cell paste by Nickel affinity chromatography after equilibration of the resin with Buffer A (25 mM Tris, 200 mM NaCl, 5% glycerol, 5 mM β-mercaptoethanol, pH7.8). The column was washed with Buffer B (Buffer A plus 20 mM imidazole) and His-tagged SMYD3 was eluted with Buffer C (Buffer A plus 300 mM imidazole). The His tag, TEV and SUMO cleavage sites were removed generating native SMYD3 by addition of ULP1 protein at a ratio of 1:200 (ULP1:SMYD3). Imidazole was removed by dialysis overnight in Buffer A. The dialyzed solution was applied to a second Nickel column and the native SMYD3 protein was collected from the column flow-through. The flow-through was dialyzed in Buffer D (25 mM Tris, 5% glycerol, 5 mM β-mercaptoethanol, 50 mM NaCl, pH7.8) and ULP1 was removed using a Q sepharose fast flow column. SMYD3 was eluted in Buffer A and further purified using an S200 size-exclusion column equilibrated with Buffer A. SMYD3 was concentrated to 2 mg/mL with a final purity of 89%.
The assays were all performed in a buffer consisting of 25 mM Tris-Cl pH 8.0, 1 mM TCEP, 0.005% BSG, and 0.005% Tween 20, prepared on the day of use. Compounds in 100% DMSO (1 ul) were spotted into a 384-well white opaque OptiPlate using a Bravo automated liquid handling platform outfitted with a 384-channel head (Agilent Technologies). DMSO (1 ul) was added to Columns 11, 12, 23, 24, rows A-H for the maximum signal control and 1 ul of SAH, a known product and inhibitor of SMYD3, was added to columns 11, 12, 23, 24, rows I-P for the minimum signal control. A cocktail (40 ul) containing the SMYD3 enzyme was added by Multidrop Combi (Thermo-Fisher). […]

SMILES	IC50
CN1CCC(NC(=O)c2cc(C3CC3)on2)C1 (stereo not shown) [compound 29, 5-cyclopropyl-N-(1-methylpyrrolidin-3-yl)isoxazole-3-carboxamide]	84 µM
NCCCC(=O)N1CC[C@@H](NC(=O)c2cc(C3CC3)on2)C1 [compound 30, (R)-N-(1-(4-amino-butanoyl)pyrrolidin-3-yl)-5-cyclopropyl-isoxazole-3-carboxamide]	> 10 µM
N[C@H]1CC[C@H](C(=O)N2CC[C@@H](NC(=O)c3cc(C4CC4)on3)C2)CC1 [compound 31, N-((R)-1-((1r,4r)-4-aminocyclohexane-1-carbonyl)pyrrolidin-3-yl)-5-cyclopropyl-isoxazole-3-carboxamide]	> 10 µM
NCCCC(=O)N1CC[C@H](NC(=O)c2cc(C3CC3)on2)C1 [compound 32, (S)-N-(1-(4-amino-butanoyl)pyrrolidin-3-yl)-5-cyclopropyl-isoxazole-3-carboxamide]	> 10 µM
N[C@H]1CC[C@H](C(=O)N2CC[C@H](NC(=O)c3cc(C4CC4)on3)C2)CC1 [compound 33, N-((S)-1-((1r,4s)-4-aminocyclohexane-1-carbonyl)pyrrolidin-3-yl)-5-cyclopropyl-isoxazole-3-carboxamide]	3.25 µM
NCCCS(=O)(=O)N1CC[C@@H](NC(=O)c2cc(C3CC3)on2)C1 [compound 34, (R)-N-(1-((3-amino-propyl)sulfonyl)pyrrolidin-3-yl)-5-cyclopropyl-isoxazole-3-carboxamide]	5.8 µM
NCCCS(=O)(=O)N1CC[C@H](NC(=O)c2cc(C3CC3)on2)C1 [compound 35, (S)-N-(1-((3-amino-propyl)sulfonyl)pyrrolidin-3-yl)-5-cyclopropyl-isoxazole-3-carboxamide]	4.43 µM
